Measurements taken from patent US8574831B2, “Mutational profiles in HIV-1 reverse transcriptase correlated with phenotypic drug resistance” (Virco N.V., priority 2000, dated 2013).

Tested on: HIV with mutations in the HIV protease sequence
Experiment: Phenotypic fold resistance to protease inhibitors, protease mutations 84A/84L/84C/54M/54L/54V in a background (Examples 8-13)
Assay type: cell-based, HIV-1
Method in brief: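 Fold-resistance equals chimeric-virus IC50 divided by IC50 of a parallel wild-type reference HIV-1 strain. Chimeras come from PCR-amplified PR/RT genes recombined into PR/RT-deleted HXB2 proviral DNA inside CD4+ T cells, then cultured with graded drug concentrations.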

SMILES: CC(C)c1nc(CN(C)C(=O)N[C@H](C(=O)N[C@@H](Cc2ccccc2)C[C@H](O)[C@H](Cc2ccccc2)NC(=O)OCc2cncs2)C(C)C)cs1 [Ritonavir, ritonavir]
- Fold change in IC50 (Table 12, V055199, genotype 10I + 33F + 54M + 90M): 18.4 fold
- Fold change in IC50 (Table 13, V19263, genotype 77I): 0.4 fold
- Fold change in IC50 (Table 13, V20160, genotype WT): 0.6 fold
- Fold change in IC50 (Table 13, V021667, genotype 10I): 1.2 fold
- Fold change in IC50 (Table 13, V030496, genotype 10I + 77I): 0.5 fold
- Fold change in IC50 (Table 13, V048868, genotype 10I + 54L + 71V + 77I + 90M): 9.7 fold
- Fold change in IC50 (Table 13, V048874, genotype 10I + 33F + 54L + 71V + 77I + 90M): 21.3 fold
- Fold change in IC50 (Table 13, V048875, genotype 10I + 33F + 54L + 71V + 77I + 90M): 25.1 fold
- Fold change in IC50 (Table 13, V048877, genotype 10I + 33F + 77I + 90M): 20.5 fold
- Fold change in IC50 (Table 13, V048880, genotype 10I + 33F + 77I + 90M): 3.6 fold
- Fold change in IC50 (Table 13, V052940, genotype 71V): 0.4 fold
- Fold change in IC50 (Table 13, V052942, genotype 10I + 71V): 0.6 fold
- Fold change in IC50 (Table 13, V052943, genotype 10I + 90M): 1.8 fold
- Fold change in IC50 (Table 13, V052944, genotype 10I + 90M): 1.5 fold
- Fold change in IC50 (Table 13, V052945, genotype 77I + 90M): 1.9 fold
- Fold change in IC50 (Table 13, V052946, genotype 71V + 90M): 2.0 fold
- Fold change in IC50 (Table 13, V052947, genotype 10I + 77I + 90M): 6.9 fold
- Fold change in IC50 (Table 13, V052948, genotype 10I + 71V + 90M): 10.5 fold
- Fold change in IC50 (Table 13, V052949, genotype 10I + 71V + 77I + 90M): 2.3 fold
- Fold change in IC50 (Table 13, V052950, genotype 33F): 1.5 fold
- Fold change in IC50 (Table 13, V052951, genotype 33F + 77I): 0.3 fold
- Fold change in IC50 (Table 13, V052953, genotype 10I + 33F + 77I): 1.1 fold
- Fold change in IC50 (Table 13, V052954, genotype 33F + 77I + 90M): 2.2 fold
- Fold change in IC50 (Table 13, V052955, genotype 33F + 71V + 90M): 77.9 fold
- Fold change in IC50 (Table 13, V052968, genotype 10L/I + 33F/L + 54L + 77I): 4.7 fold
- Fold change in IC50 (Table 13, V052969, genotype 10I + 33F + 54L + 90M): 4.8 fold
- Fold change in IC50 (Table 13, V052970, genotype 54L): 2.0 fold
- Fold change in IC50 (Table 13, V052971, genotype 10I + 54L): 1.5 fold
- Fold change in IC50 (Table 13, V052972, genotype 54L + 77I): 2.4 fold
- Fold change in IC50 (Table 13, V052973, genotype 10I + 54L + 77I): 1.4 fold
- Fold change in IC50 (Table 13, V052974, genotype 10I + 54L + 90M): 3.6 fold
- Fold change in IC50 (Table 13, V052975, genotype 10I + 54L + 71V + 90M): 30.5 fold
- Fold change in IC50 (Table 13, V052976, genotype 10I + 54L + 71V + 77I + 90M): 6.5 fold
- Fold change in IC50 (Table 13, V053832, genotype 10I + 33F): 2.9 fold
- Fold change in IC50 (Table 13, V053854, genotype 54L + 71V): 2.3 fold
- Fold change in IC50 (Virco ID 214846, genotype 10I + 33F + 54V + 71V + 77I + 90M, vs mean IC50 of wild type laboratory HIV strain): 57.6 fold
- Fold change in IC50 (Virco ID V021667, genotype 10I, vs mean IC50 of wild type laboratory HIV strain): 1.2 fold
- Fold change in IC50 (Virco ID V030496, genotype 10I + 77I, vs mean IC50 of wild type laboratory HIV strain): 0.5 fold
- Fold change in IC50 (Virco ID V048876, genotype 33F + 54V + 77I + 90M, vs mean IC50 of wild type laboratory HIV strain): 5.6 fold
- Fold change in IC50 (Virco ID V048877, genotype 10I + 33F + 77I + 90M, vs mean IC50 of wild type laboratory HIV strain): 20.5 fold
- Fold change in IC50 (Virco ID V048880, genotype 10I + 33F + 77I + 90M, vs mean IC50 of wild type laboratory HIV strain): 3.6 fold
- Fold change in IC50 (Virco ID V052940, genotype 71V, vs mean IC50 of wild type laboratory HIV strain): 0.4 fold
- Fold change in IC50 (Virco ID V052942, genotype 10I + 71V, vs mean IC50 of wild type laboratory HIV strain): 0.6 fold
- Fold change in IC50 (Virco ID V052943, genotype 10I + 90M, vs mean IC50 of wild type laboratory HIV strain): 1.8 fold
- Fold change in IC50 (Virco ID V052944, genotype 10I + 90M, vs mean IC50 of wild type laboratory HIV strain): 1.5 fold
- Fold change in IC50 (Virco ID V052946, genotype 71V + 90M, vs mean IC50 of wild type laboratory HIV strain): 2.0 fold
- Fold change in IC50 (Virco ID V052947, genotype 10I + 77I + 90M, vs mean IC50 of wild type laboratory HIV strain): 6.9 fold
- Fold change in IC50 (Virco ID V052948, genotype 10I + 71V + 90M, vs mean IC50 of wild type laboratory HIV strain): 10.5 fold
- Fold change in IC50 (Virco ID V052949, genotype 10I + 71V + 77I + 90M, vs mean IC50 of wild type laboratory HIV strain): 2.3 fold
- Fold change in IC50 (Virco ID V052950, genotype 33F, vs mean IC50 of wild type laboratory HIV strain): 1.5 fold
- Fold change in IC50 (Virco ID V052951, genotype 33F + 77I, vs mean IC50 of wild type laboratory HIV strain): 0.3 fold
- Fold change in IC50 (Virco ID V052953, genotype 10I + 33F + 77I, vs mean IC50 of wild type laboratory HIV strain): 1.1 fold
- Fold change in IC50 (Virco ID V052954, genotype 33F + 77I + 90M, vs mean IC50 of wild type laboratory HIV strain): 2.2 fold
- Fold change in IC50 (Virco ID V052955, genotype 33F + 71V + 90M, vs mean IC50 of wild type laboratory HIV strain): 77.9 fold
- Fold change in IC50 (Virco ID V052957, genotype 10I + 33F + 54V + 90M, vs mean IC50 of wild type laboratory HIV strain): 13.9 fold
- Fold change in IC50 (Virco ID V052958, genotype 10I + 33F + 54V + 77I + 90M, vs mean IC50 of wild type laboratory HIV strain): 16.6 fold
- Fold change in IC50 (Virco ID V052959, genotype 10I + 33F + 54V + 77I + 90M, vs mean IC50 of wild type laboratory HIV strain): 28.5 fold
- Fold change in IC50 (Virco ID V052960, genotype 10I + 33F + 54V + 71V + 90M, vs mean IC50 of wild type laboratory HIV strain): 70.9 fold
- Fold change in IC50 (Virco ID V052961, genotype 54V, vs mean IC50 of wild type laboratory HIV strain): 1.2 fold
- Fold change in IC50 (Virco ID V052962, genotype 10I + 54V, vs mean IC50 of wild type laboratory HIV strain): 1.0 fold
- Fold change in IC50 (Virco ID V052963, genotype 54V + 77I + 90M, vs mean IC50 of wild type laboratory HIV strain): 2.0 fold
- Fold change in IC50 (Virco ID V052964, genotype 54V + 71V + 90M, vs mean IC50 of wild type laboratory HIV strain): 7.1 fold
- Fold change in IC50 (Virco ID V052965, genotype 10I + 54V + 77I + 90M, vs mean IC50 of wild type laboratory HIV strain): 12.5 fold
- Fold change in IC50 (Virco ID V052966, genotype 10I + 54V + 71V + 90M, vs mean IC50 of wild type laboratory HIV strain): 44.5 fold
- Fold change in IC50 (Virco ID V052967, genotype 10I + 54V + 71V + 77I + 90M, vs mean IC50 of wild type laboratory HIV strain): 0.7 fold
- Fold change in IC50 (Virco ID V053358, genotype 33F + 54V + 77I + 90M, vs mean IC50 of wild type laboratory HIV strain): 4.9 fold
- Fold change in IC50 (Virco ID V053831, genotype 33F + 54V, vs mean IC50 of wild type laboratory HIV strain): 129.7 fold
- Fold change in IC50 (Virco ID V053832, genotype 10I + 33F, vs mean IC50 of wild type laboratory HIV strain): 2.9 fold
